{
  "source": "patent US20260294883A1",
  "about": "“PHARMACEUTICAL COMPOSITION FOR THE TREATMENT OF POST-TRAUMATIC STRESS SYNDROME” (KINNOV THERAPEUTICS, priority 2022, published 2026)",
  "key": {"[1]": {"details": "Azevedo et al., Neuropharmacology 164 (2020) 107912; cited from earlier work"}, "[2]": {"assay": "conditioned fear test, Example 1 (freezing index 3 days after conditioning)", "type": "in vivo, rodents", "details": "for p (freezing index, versus control group) / Freezing index / Freezing index, % vs witness: 3 days after conditioning, n = 10; for Freezing index: Mean ± SEM, witnesses 62.12 ± 9.93; for Freezing index, % vs witness: witnesses 100.00", "protocol": "(§1) The conditioned fear test in rodents is recognized as a relevant preclinical model for the study of post-traumatic stress disorders.\n(§2) During this test, animals are placed for a 4.5-minute conditioning session in a square box with a stainless steel mesh floor connected to a shock generator.\n(§3) A conditioned stimulus (CS) consisting of a sound (80 dB, 2800 Hz, 30 seconds) is presented twice (at 1.5 min and then at 3.5 min).\n(§4) An unconditioned stimulus consisting of an electric shock to the paws is delivered at the end of each CS (2 seconds, 0.6 mA).\n(§5) The animals were then subjected to memory test sessions of the stressful event on different days after the session of packaging. The sessions of test of memorization (duration of 6 min) comprise a first period of 3 minutes without none CS presentation (period CS−) followed by a second 3 minute period during which the CS is presented (period CS+).\n(§6) The sound stimulus alone triggers conditioned fear behavior. In rodents, this behavior is manifested by a prostrate attitude, an immobility behavior (i.e. «freezing») that is distinguished from the animal's exploratory behavior when placed in an enclosure for a short period.\n(§7) The analyzed data are the time of immobility during the period CS− and during the period CS+. The freezing index is defined as the difference in immobility time between the period with the sound stimulus and the period without the sound. Therefore, the higher this index, the greater the post-traumatic stress state.\n(§8) The «sham» group received no shock. The treatments were administered immediately after the conditioning session, and then 30 minutes before each conditioned fear session (no shock, but with the conditioned stimulus).\n(§9) This test measures the effect of stress and its environment and its memorization (i.e. extinction)."}, "[3]": {"assay": "conditioned fear test, Example 3 (comparison with paroxetine)", "type": "in vivo, rodents", "details": "for Freezing index Day 1 / Freezing index Day 3 / Freezing index Day 4: n = 10; for Freezing index Day 1: witnesses 53.3 ± 5.7; for Freezing index Day 3: witnesses 38.1 ± 8.7; for Freezing index Day 4: Day 4, treatment stopped after day 3, witnesses 56.2 ± 9.8", "protocol": "as §1, §2, §3, §4, §5, §6, §7, §8, §9\nThe protocol is identical to that of Example 1 above. In this example, the conditioned fear sessions and the freezing measurement are carried out on days 1, 3 and 4 after the conditioning session. The treatment is stopped after day 3, so that during the 4th observation session, no treatment is administered."}},
  "note": "Where a name gives a salt, the structure may show the parent alone.",
  "data": [
    {"smiles": "COc1ccccc1N1CCN(CCn2cnc3ccccc3c2=O)CC1", "note": "[ACH-000029]", "values": [
      {"measurement": "efficacy versus prazosin alone", "setting": "[1]", "value": "more effective than prazosin alone"}
    ]},
    {"smiles": "CN1CCC(=C2c3ccccc3C=Cc3ccccc32)CC1", "note": "[Cyproheptadine, 4-(5-H-dibenzo[a,d]cyclohepten-5-ylidene)-1-methylpiperidine hydrochloride]", "values": [
      {"measurement": "p (freezing index, versus control group)", "setting": "[2]; 0.5 mg/kg", "value": "ns"},
      {"measurement": "Freezing index", "setting": "[2]; 0.5 mg/kg", "value": "38.68 ± 5.84", "unit": "s"},
      {"measurement": "Freezing index, % vs witness", "setting": "[2]; 0.5 mg/kg", "value": 62.28, "unit": "%"}
    ]},
    {"smiles": "Fc1ccc([C@@H]2CCNC[C@H]2COc2ccc3c(c2)OCO3)cc1", "note": "[Paroxetine]", "values": [
      {"measurement": "Freezing index Day 1", "setting": "[3]; 4 mg/kg", "value": 64.5, "unit": "s"},
      {"measurement": "Freezing index Day 3", "setting": "[3]; 4 mg/kg", "value": 44.3, "unit": "s"},
      {"measurement": "Freezing index Day 4", "setting": "[3]; 4 mg/kg", "value": 38.9, "unit": "s"},
      {"measurement": "Freezing index Day 1", "setting": "[3]; 8 mg/kg", "value": 51.3, "unit": "s"},
      {"measurement": "Freezing index Day 3", "setting": "[3]; 8 mg/kg", "value": 33.1, "unit": "s"},
      {"measurement": "Freezing index Day 4", "setting": "[3]; 8 mg/kg", "value": 50.3, "unit": "s"},
      {"measurement": "effect on the memory component and impact of the stressful event / anxious reaction, in words", "setting": "[3]; Example 3 conclusion", "value": "no significant effect"}
    ]},
    {"smiles": "COc1cc2nc(N3CCN(C(=O)c4ccco4)CC3)nc(N)c2cc1OC", "note": "[Prazosin, 2-[4-(2-furoyl)piperazin-1-yl]-6,7-dimethoxyquinazolin-4-amine]", "values": [
      {"measurement": "p (freezing index, versus control group)", "setting": "[2]; 0.5 mg/kg", "value": "ns"},
      {"measurement": "Freezing index", "setting": "[2]; 0.5 mg/kg", "value": "41.97 ± 5.82", "unit": "s"},
      {"measurement": "Freezing index, % vs witness", "setting": "[2]; 0.5 mg/kg", "value": 67.57, "unit": "%"},
      {"measurement": "p (freezing index, versus control group)", "setting": "[2]; 1 mg/kg", "value": "ns"},
      {"measurement": "Freezing index", "setting": "[2]; 1 mg/kg", "value": "35.29 ± 12.22", "unit": "s"},
      {"measurement": "Freezing index, % vs witness", "setting": "[2]; 1 mg/kg", "value": 56.80, "unit": "%"},
      {"measurement": "effect on post-traumatic stress syndrome, in words", "setting": "[2]; Example 1 conclusion, conditioned fear test", "value": "does not allow the treatment of post-traumatic stress syndrome"}
    ]}
  ]
}
